Experimental data reported in US20210269734A1, “POLYISOBUTYLENE-SUBSTITUTED PHENOL, DERIVATIVES THEREOF, AND LUBRICATING COMPOSITIONS CONTAINING THE POLYISOBUTYLENE-SUBSTITUTED PHENOL AND ITS DERIVATIVES” (The Lubrizol Corporation, priority 2016, published 2021).
Like-named read-outs stand apart in the source and are kept apart here.

Tests used:
[1] = test system: Daphnia sp.; settings: OECD Test No. 202 acute immobilisation
Protocol: The polyisobutylene substituted phenol described in Example 1 was tested for Acute Ecotox Value for Invertebrate using the OECD Guidelines for the Testing of Chemicals, Test No. 202 Daphnia sp. Acute Immobilisation Test (2004). Samples of alkyl-phenols having C4 and C8 alkyl groups were compared to the Sample of Example 1. A published test value for PDDP using the same test method is also included as a comparison.

[2] = test system: Daphnia sp.; settings: published value, same test method; Daphnia magna, Sewell & McKenzie (2005a); cited from earlier work

Row | Substance | Acute Ecotox Value for Invertebrate daphnid (EC50) [1] | Acute Ecotox Value for Invertebrate daphnid (EC50) [2]
1 | 350 Mn polyisobutylene-alkylated phenol [Example 1] | >100 µg/mL | –
2 | PDDP [Comparative Ex. 3] | – | 0.037 µg/mL
